Assay results taken from patent US11452731B2, “Method of treating and preventing loss of cognition” (ENDORECHERCHE, INC., priority 2009, dated 2022).
Several values for one entry are separate records, joined by “and”; a condition that tells them apart may be missing. Equal entries are not always repeated. Marks after values point to notes of the source that are not given here.

Key:
[1] = tested on: ZR-75-1 human breast cancer xenografts; assay: Growth and response of human ZR-75-1 breast tumors in OVX nude mice, 7 antiestrogens for 161 days with or without estrone (Example 8); assay type: in vivo
Description: ZR-75-1 human breast cancer cells were obtained from the American Type Culture Collection (Rockville, Md.) and cultured in phenol red-free RPMI-1640 medium. […] (Saint-Constant, Québec, Canada). The mice (5 per cage) were housed in vinyl cages equipped with air filter lids, which were kept in laminar airflow hoods and maintained under pathogen-limiting conditions. The photoperiod was 12 hours of light and 12 hours of darkness (lights on at 07:15). Cages, bedding and food (Agway Pro-Lab R-M-H Diet #4018) were autoclaved before use. Water was autoclaved and provided ad libitum. Bilateral ovariectomy was performed under isoflurane-induced anesthesia. […] Randomization and treatments were started one week later. […] The estrone implants were then removed from the animals in the ovariectomized control group (OVX) and in groups that were to receive the antiestrogen alone. […] Tamoxifen was purchased from […]) while toremifene citrate was purchased from Orion (Espoo, Finland). […] The antiestrogen suspensions at the appropriate concentration were prepared each month, stored at 4° C. and used under constant agitation. Powder stock were hermetically stored at 4° C. […] Two perpendicular diameters were recorded and tumor area (mm2) was calculated using the formula: […] Tumor response was assessed at the end of the study or at death of each animal, if it occurred during the course of the experiment. In this case, only data of mice that survived for at least half of the study ([…]) were used in the tumor response analysis.

[2] = Endometrial epithelium thickness in OVX nude mice after 161 days of antiestrogen (Example 8); assay type: in vivo
From the text: The 17 groups included two control groups (OVX and OVX+Estrone), seven groups supplemented with an estrone implant and treated with an antiestrogen and eight other groups that received an antiestrogen alone. The estrone implants were then removed from the animals in the ovariectomized control group (OVX) and in groups that were to receive the antiestrogen alone. […] Tamoxifen was purchased from […]) while toremifene citrate was purchased from Orion (Espoo, Finland). […] The antiestrogen suspensions at the appropriate concentration were prepared each month, stored at 4° C. and used under constant agitation. Powder stock were hermetically stored at 4° C. […] After 161 days of treatment, the remaining animals were anesthetized with isoflurane and killed by exsanguination. […] The uteri were prepared to evaluate endometrial thickness by image analysis performed with Image Pro-Plus (Media Cybernetics, Maryland, USA). […] Hematoxylin- and eosin-stained sections of mice uteri were analyzed. […] Mean epithelial cell height was measured in all animals of each group.

[3] = tested on: ZR-75-1 human breast cancer xenografts; assay: Tamoxifen and EM-652.HCl alone or combined on growth of ZR-75-1 xenografts in nude mice (FIG. 7); assay type: in vivo; conditions: ZR-75-1 xenografts in nude mice
[4] = 9-month treatment with DHEA and/or EM-800 in the rat: urinary and serum markers of bone metabolism; assay type: in vivo
From the text: It is particularly important to indicate that the combination of DHEA and EM-800 exerted unexpected beneficial effects on important biochemical parameters of bone metabolism. […] Moreover, no effect of DHEA could be detected on daily urinary calcium or phosphorus excretion (Luo et al., 1997). EM-800 decreased the urinary hydroxyproline/creatinine ratio by 48% while, similarly to DHEA, no effect of EM-800 was seen on urinary calcium or phosphorus excretion. EM-800, moreover, had no effect on serum alkaline phosphatase activity, a marker of bone formation while DHEA increased the value of the parameter by about 75% (Luo et al., 1997).

[5] = 12-month treatment of ovariectomized rats with DHEA alone or with Flutamide or EM-800: bone histomorphometry, bone markers, serum lipids; assay type: in vivo, rat; conditions: added to DHEA, OVX rats, 12 months
[6] = 12-week oral EM-800 (0.5 mg/kg) in intact rats: serum 17β-estradiol, mammary gland and endometrium histology; assay type: in vivo, rat; conditions: 12 weeks
Description: The lobules (L) consist of a few alveoli. Insert. High magnification showing alveoli. • b) Animal treated with EM-800 (0.5 mg/kg, b w per day) for 12 weeks. […] Insert. High magnification showing atrophied alveolar cells.
The luminal epithelium (LE) is characterized by columnar epithelial cells while the glandular epithelium (GE) is rather cuboidal. The stroma contains several cellular elements and collagen fibers. • b) Animal treated with EM-800 (0.5 mg/kg, b w per day) during 12 weeks. […] The glandular epithelial cells have unstained cytophasm with no sign of activity. The stroma is highly cellular due to reduction in intercellular elements of the stroma.

[7] = tested on: ZR-75-1 human breast cancer xenografts; assay: Growth and response of human ZR-75-1 breast tumor xenografts in estrone-supplemented OVX nude mice, DHEA and/or EM-800 for 9.5 months (Example 1); assay type: in vivo; conditions: 9.5 months; for Category of response: Complete (%) / Category of response: Complete (Number) / Category of response: Partial (%) / Category of response: Partial (Number) / Category of response: Progression (%) / Category of response: Progression (Number) / Category of response: Stable (%) / Category of response: Stable (Number) / Average tumor weight at end of experiment: E1-supplemented
[8] = Uterine, vaginal and body weight in estrone-supplemented OVX nude mice (Example 1); assay type: in vivo; conditions: E1-supplemented
Description: DHEA was dissolved in 50% ethanol 50% propylene glycol. […] Tumors were measured once a week with Vernier calipers.

[9] = set-up: species or system Long-Evans rats; conditions: rat, in vivo
From the text: For comparison purposes, values for the blood, plasma, liver (Table 13) and uterus from each of these animals were included.

[10] = absence of estrone, 200 μg daily, 161 days
[11] = estrone-supplemented, 50 μg daily, 161 days
[12] = DHEA 10 mg, EM-800 75 μg, alone or combined
[13] = DHEA 0.3 mg, EM-800 15 μg, or EM-800 15 μg + DHEA 0.3 mg
[14] = DHEA 1.0 mg, EM-800 50 μg, or EM-800 15 μg + DHEA 1.0 mg
[15] = DHEA 3.0 mg, EM-800 100 μg, or EM-800 15 μg + DHEA 3.0 mg
[16] = EM-800 15 μg, or EM-800 15 μg + DHEA 0.3 mg
[17] = EM-800 50 μg, or EM-800 15 μg + DHEA 1.0 mg
[18] = EM-800 100 μg, or EM-800 15 μg + DHEA 3.0 mg

## CC/C(=C(\c1ccccc1)c1ccc(OCCN(C)C)cc1)c1ccccc1 [Tamoxifen, (Z)-2-[4-(1,2-diphenyl-1-butenyl)phenoxy]-N,N-dimethylethanamine]
[1]; [10]
  increase of average tumor size over baseline (agonistic effect): 196%
  tumors in the progression category, %: 62%
  tumors in the progression category, number of total: 16 of 26
[1]; estrone-stimulated, 50 μg oral daily, 23 weeks
  average tumor size above pretreatment values: 87%
[1]; [11]
  progressing tumors, % of tumors: 65%
  progressing tumors, number of total: 17 of 26
[2]; 50 μg daily oral, estrone stimulation
  inhibition of the stimulatory effect of estrone on epithelial height: 32%
[2]; 200 μg daily, absence of estrone
  height of uterine epithelial cells, % of the OVX control group value: 155%
[2]; OVX + E1, antiestrogen 50 μg daily
  ENDOMETRIAL EPITHELIUM THICKNESS (μm) ± SEM: 33.44^b,d ± 0.04 μm
[2]; OVX without E1, antiestrogen 200 μg daily
  ENDOMETRIAL EPITHELIUM THICKNESS (μm) ± SEM: 28.47^b,d ± 0.05 μm
[3]
  stimulatory effect on tumor growth: approximately 100%

## CC1=C(c2ccc(OC(=O)C(C)(C)C)cc2)[C@H](c2ccc(OCCN3CCCCC3)cc2)Oc2cc(OC(=O)C(C)(C)C)ccc21 [EM-800, (+)-7-pivaloyloxy-3-(4′-pivaloyloxyphenyl)-4-methyl-2-(4″-(2′″-piperidi-noethoxy)phenyl)-2H-benzopyran]
[4]
  decrease of urinary hydroxyproline/creatinine ratio (marker of bone resorption): 48%
  effect on daily urinary calcium or phosphorus excretion: no effect
  increase of serum alkaline phosphatase activity (marker of bone formation): no effect
[4]; [12]
  Serum tALP: 114.11 ± 11.26 IU/L
  Urine HP/Cr: 6.81 ± 0.84 μmol/mmol
  Urine calcium: 17.44 ± 4.5 μmol/24 h/100 g
  Urine phosphorus: 102.03 ± 25.13 μmol/24 h/100 g
[5]
  reversal of the stimulatory effect of DHEA on serum alkaline phosphatase: no significant effect
[6]; EM-800 0.5 mg/kg orally daily
  elevation of circulating 17β-estradiol versus intact animals: 50%
[6]; EM-800 0.5 mg/kg
  effect on the endometrium (histology): marked atrophy
  effect on the mammary gland (histology): marked atrophy
[6]; intact rats, EM-800 0.5 mg/kg orally daily
  circulating levels of 17β-estradiol: 143.5 ± 7.8 pg/mL
[7]; daily DHEA 0.3 mg or EM-800 15 μg
  Inhibition of estrone-stimulated ZR-75-1 tumor size: 88% and 87.5%
[7]; daily DHEA 1.0 mg or EM-800 50 μg
  Inhibition of estrone-stimulated ZR-75-1 tumor size: 93% and 93.5%
[7]; daily DHEA 3.0 mg or EM-800 100 μg
  Inhibition of estrone-stimulated ZR-75-1 tumor size: 94%
[7]; [13]
  Category of response: Complete (%): 29.4%
  Category of response: Complete (Number): 5
  Category of response: Partial (%): 5.9%
  Category of response: Partial (Number): 1
  Category of response: Progression (%): 35.3%
  Category of response: Progression (Number): 6
  Category of response: Stable (%): 29.4%
  Category of response: Stable (Number): 5
[7]; [14]
  Category of response: Complete (%): 25.0%
  Category of response: Complete (Number): 4
  Category of response: Partial (%): 18.8%
  Category of response: Partial (Number): 3
  Category of response: Progression (%): 25.0%
  Category of response: Progression (Number): 4
  Category of response: Stable (%): 31.2%
  Category of response: Stable (Number): 5
[7]; [15]
  Category of response: Complete (%): 50.0%
  Category of response: Complete (Number): 8
  Category of response: Partial (%): 0 (0) %
  Category of response: Partial (Number): 0 (0)
  Category of response: Progression (%): 31.2%
  Category of response: Progression (Number): 5
  Category of response: Stable (%): 18.8%
  Category of response: Stable (Number): 3
[7]; daily DHEA 0.3 mg, EM-800 15 μg, or EM-800 15 μg + DHEA 0.3 mg
  Average tumor weight at end of experiment: 0.08 ± 0.03 g
[7]; daily DHEA 1.0 mg, EM-800 50 μg, or EM-800 15 μg + DHEA 1.0 mg
  Average tumor weight at end of experiment: 0.03 ± 0.01 g
[7]; daily DHEA 3.0 mg, EM-800 100 μg, or EM-800 15 μg + DHEA 3.0 mg
  Average tumor weight at end of experiment: 0.04 ± 0.03 g
[8]; [16]
  UTERINE WEIGHT: 49 ± 3 mg
  VAGINAL WEIGHT: 23 ± 1 mg
[8]; [17]
  UTERINE WEIGHT: 36 ± 2 mg
  VAGINAL WEIGHT: 15 ± 1 mg
[8]; [18]
  UTERINE WEIGHT: 32 ± 1 mg
  VAGINAL WEIGHT: 11 ± 1 mg

## CC1=C(c2ccc(O)cc2)[C@H](c2ccc(OCCN3CCCCC3)cc2)Oc2cc(O)ccc21 [EM-652]
[9]
  accessibility to the CNS: very poor accessibility
